Five molecules from US10988524B2, “Modified relaxin B chain peptides and their therapeutic use” (priority 2018, dated 2021) can be followed below.

For the experiment, the target named is T1, RXFP1 (Homo sapiens, UniProt Q9HBX9).
T1 sequence (Q9HBX9 1-757): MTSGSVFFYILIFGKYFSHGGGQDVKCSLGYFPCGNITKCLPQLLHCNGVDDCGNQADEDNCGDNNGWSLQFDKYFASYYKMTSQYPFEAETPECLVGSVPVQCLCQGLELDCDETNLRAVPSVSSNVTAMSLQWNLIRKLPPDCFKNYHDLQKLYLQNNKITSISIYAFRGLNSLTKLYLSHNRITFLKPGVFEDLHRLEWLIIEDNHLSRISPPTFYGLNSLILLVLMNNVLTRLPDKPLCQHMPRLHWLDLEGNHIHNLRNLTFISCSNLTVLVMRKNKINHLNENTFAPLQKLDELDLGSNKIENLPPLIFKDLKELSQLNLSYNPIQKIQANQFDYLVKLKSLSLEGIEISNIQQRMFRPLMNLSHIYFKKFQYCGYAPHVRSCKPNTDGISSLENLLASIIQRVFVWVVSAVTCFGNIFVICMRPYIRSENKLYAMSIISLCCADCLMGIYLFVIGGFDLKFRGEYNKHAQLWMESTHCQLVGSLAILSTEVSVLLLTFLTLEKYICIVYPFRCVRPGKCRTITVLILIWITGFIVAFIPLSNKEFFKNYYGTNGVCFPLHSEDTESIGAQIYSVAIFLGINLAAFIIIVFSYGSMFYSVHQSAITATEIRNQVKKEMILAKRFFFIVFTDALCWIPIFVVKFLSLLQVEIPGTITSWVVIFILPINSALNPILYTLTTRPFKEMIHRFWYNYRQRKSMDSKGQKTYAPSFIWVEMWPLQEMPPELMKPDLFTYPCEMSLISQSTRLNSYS
In words: OVCAR5 cAMP assay (RXFP1 agonist activity, HTRF). To be noted: for Emax: OVCAR-5, read-out: cAMP assay in OVCAR 5 cells Emax, maximal intracellular cAMP relative to H2-relaxin in the same test occasion; for EC50: cAMP assay in OVCAR 5 cells EC50 (nM), OVCAR5 cells expressing endogenous RXFP1, cAMP by HTRF, 30 min at 37° C., 1 mM IBMX.

Values joined by “and” are separate entries in the source; they are usually repeats but may differ in a detail not shown here. Equal entries are not always repeated. Non-standard residues stand in square brackets, D forms with d. Residues, ends and D or L forms follow the SMILES beside them. αMeK = C[C@](N)(CCCCN)C(=O)O; Nle = CCCC[C@H](N)C(=O)O; Aib = CC(C)(N)C(=O)O

Take `CC[C@H](C)[C@H](NC(=O)[C@H](C)NC(=O)[C@H](C)NC(=O)[C@H](CCCNC(=N)N)NC(=O)[C@@H](NC(=O)[C@H](CCCCN)NC(=O)[C@H](CCC(=O)O)NC(=O)[C@H](CCCNC(=N)N)NC(=O)CNC(=O)[C@H](CCC(=O)O)NC(=O)[C@H](CC(C)C)NC(C)=O)C(C)C)C(=O)NC(C)(C)C(=O)NC(C)(C)C(=O)N[C@@H](CCC(=O)O)C(=O)NCC(=O)N[C@@H](CCSC)C(=O)N[C@@H](CO)C(=O)N[C@H](C(=O)N[C@@H](Cc1c[nH]c2ccccc12)C(=O)N[C@@H](CO)C(=O)N[C@@H](CCCCN)C(=O)N[C@@H](CCCNC(=N)N)C(=O)N[C@@H](CCCCN)C(=O)N[C@@H](CCCCN)C(N)=O)[C@@H](C)O` [compound 16] (Ac-LEGREKVRAAI[Aib][Aib]EGMSTWSKRKK-NH2): the Emax (commonly the maximal effect, on the per cent scale that the assay sets) was 101% and the EC50 (commonly the concentration at which the effect is half-maximal) is no more than 5 nM.

Consider `CCCC[C@H](NC(=O)CNC(=O)[C@H](CCC(=O)O)NC(=O)C(C)(C)NC(=O)C(C)(C)NC(=O)[C@@H](NC(=O)[C@H](C)NC(=O)[C@H](C)NC(=O)[C@H](CCCNC(=N)N)NC(=O)[C@@H](NC(=O)[C@H](CCCCN)NC(=O)[C@H](CCC(=O)O)NC(=O)[C@H](CCCNC(=N)N)NC(=O)CNC(=O)[C@H](CCC(=O)O)NC(=O)[C@H](CC(C)C)NC(C)=O)C(C)C)[C@@H](C)CC)C(=O)N[C@@H](CO)C(=O)N[C@H](C(=O)N[C@@H](Cc1c[nH]c2ccccc12)C(=O)N[C@@H](CO)C(=O)NC(C)(C)C(=O)N[C@@H](CCCNC(=N)N)C(=O)N[C@@H](CCCCN)C(=O)N[C@@H](CCCCN)C(N)=O)[C@@H](C)O` [compound 17] (Ac-LEGREKVRAAI[Aib][Aib]EG[Nle]STWS[Aib]RKK-NH2), for which the Emax worked out at 90%.

Turning to `CC[C@H](C)[C@H](NC(=O)[C@H](CCC(N)=O)NC(=O)[C@H](C)NC(=O)[C@H](CCCNC(=N)N)NC(=O)[C@@H](NC(=O)[C@H](CCCCN)NC(=O)[C@H](CCC(=O)O)NC(=O)[C@H](CCCNC(=N)N)NC(=O)CNC(=O)[C@H](CCC(=O)O)NC(=O)[C@H](CC(C)C)NC(C)=O)C(C)C)C(=O)NC(C)(C)C(=O)NC(C)(C)C(=O)N[C@@H](CCC(=O)O)C(=O)NCC(=O)N[C@@H](CCSC)C(=O)N[C@@H](CO)C(=O)N[C@@H](CCCCN)C(=O)N[C@@H](Cc1c[nH]c2ccccc12)C(=O)N[C@@H](CO)C(=O)NC(C)(C)C(=O)N[C@@H](CCCNC(=N)N)C(=O)N[C@@H](CCCCN)C(N)=O` [compound 18] (Ac-LEGREKVRAQI[Aib][Aib]EGMSKWS[Aib]RK-NH2), the maximal response (Emax) was determined as 104%.

With `CCCC[C@H](NC(=O)CNC(=O)[C@H](CCC(=O)O)NC(=O)C(C)(C)NC(=O)C(C)(C)NC(=O)[C@@H](NC(=O)C(C)(C)NC(=O)[C@H](C)NC(=O)[C@H](CCCNC(=N)N)NC(=O)[C@@H](NC(=O)[C@H](CCCCN)NC(=O)[C@H](CCC(=O)O)NC(=O)[C@H](CCCNC(=N)N)NC(=O)CNC(=O)[C@H](CCC(=O)O)NC(=O)[C@H](CC(C)C)NC(C)=O)C(C)C)[C@@H](C)CC)C(=O)N[C@@H](CO)C(=O)N[C@H](C(=O)N[C@@H](Cc1c[nH]c2ccccc12)C(=O)N[C@@H](CO)C(=O)N[C@@H](CCCCN)C(=O)N[C@@H](CCCNC(=N)N)C(=O)N[C@@H](CCCCN)C(=O)N[C@@H](CCCCN)C(N)=O)[C@@H](C)O` [compound 19] (Ac-LEGREKVRA[Aib]I[Aib][Aib]EG[Nle]STWSKRKK-NH2), the Emax stood at 97%.

Turning to `CCCC[C@H](NC(=O)CNC(=O)[C@H](CCC(=O)O)NC(=O)C(C)(C)NC(=O)C(C)(C)NC(=O)[C@@H](NC(=O)C(C)(C)NC(=O)[C@H](C)NC(=O)[C@H](CCCNC(=N)N)NC(=O)[C@@H](NC(=O)[C@H](CCCCN)NC(=O)[C@H](CCC(=O)O)NC(=O)[C@H](CCCNC(=N)N)NC(=O)CNC(=O)[C@H](CCC(=O)O)NC(=O)[C@H](CC(C)C)NC(C)=O)C(C)C)[C@@H](C)CC)C(=O)N[C@@H](CO)C(=O)N[C@H](C(=O)N[C@@H](Cc1c[nH]c2ccccc12)C(=O)N[C@@H](CO)C(=O)N[C@@](C)(CCCCN)C(=O)N[C@@H](CCCNC(=N)N)C(=O)N[C@@H](CCCCN)C(=O)N[C@@H](CCCCN)C(N)=O)[C@@H](C)O` [compound 20] (Ac-LEGREKVRA[Aib]I[Aib][Aib]EG[Nle]STWS[αMeK]RKK-NH2), the Emax was determined as 97%; the EC50 was ≤ 10 nM and ≤ 5 nM and 1.8 nM.
